18 molecules from US20250026721A1, “COMPOUNDS AND METHODS FOR MODULATING RAS-PI3K” (Vividion Therapeutics, Inc., priority 2023, published 2025) can be followed below.

Experiment [1] deals with T1, PIK3CA (Homo sapiens, UniProt P42336).
T1 construct: endogenous in cells; host or cells: Jurkat cell lysate
Briefly: In vitro ELISA target engagement assay for PIK3CA in Jurkat cellular lysate (competition with PIK3CA Biotin Probe). It is filed as binding. The note with it: 1 hour at rt, then 500 nM PIK3CA Biotin Probe, read-out: Elisa Target Engagement Assay (TE50). Put shortly:
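Competition format in Jurkat lysate: compound (serial dilutions, top 200 μM) for 1 h at rt, then 500 nM final biotinylated PIK3CA probe for 1 h at rt. Sandwich ELISA with capture antibody and Neutravidin-HRP luminescence read-out measured probe-labelled PIK3CA, giving TE50.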
In general terms: ELISA stands for enzyme-linked immunosorbent assay.

In experiment [2] the test system is pAKT(S473) in FaDu cell line. In words: In vitro Phospho-AKT(S473) HTRF analysis in FaDu cells. It is filed as cell-based. The settings on record: Homo sapiens, 0.5 h; for IC50: FaDu cells, 30 minutes at 37° C.; for Emax: FaDu, read-out: FaDu pAKT Imax % control. Put shortly: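 FaDu or H358 cells were plated overnight in medium with 1% FBS, then exposed to a compound dose response for 30 minutes at 37° C. Phospho-AKT(S473) levels were measured by HTRF.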
On the technique in general: In TR-FRET formats the signal depends on donor and acceptor labels being close together.

T1 sequence (P42336 whole entry): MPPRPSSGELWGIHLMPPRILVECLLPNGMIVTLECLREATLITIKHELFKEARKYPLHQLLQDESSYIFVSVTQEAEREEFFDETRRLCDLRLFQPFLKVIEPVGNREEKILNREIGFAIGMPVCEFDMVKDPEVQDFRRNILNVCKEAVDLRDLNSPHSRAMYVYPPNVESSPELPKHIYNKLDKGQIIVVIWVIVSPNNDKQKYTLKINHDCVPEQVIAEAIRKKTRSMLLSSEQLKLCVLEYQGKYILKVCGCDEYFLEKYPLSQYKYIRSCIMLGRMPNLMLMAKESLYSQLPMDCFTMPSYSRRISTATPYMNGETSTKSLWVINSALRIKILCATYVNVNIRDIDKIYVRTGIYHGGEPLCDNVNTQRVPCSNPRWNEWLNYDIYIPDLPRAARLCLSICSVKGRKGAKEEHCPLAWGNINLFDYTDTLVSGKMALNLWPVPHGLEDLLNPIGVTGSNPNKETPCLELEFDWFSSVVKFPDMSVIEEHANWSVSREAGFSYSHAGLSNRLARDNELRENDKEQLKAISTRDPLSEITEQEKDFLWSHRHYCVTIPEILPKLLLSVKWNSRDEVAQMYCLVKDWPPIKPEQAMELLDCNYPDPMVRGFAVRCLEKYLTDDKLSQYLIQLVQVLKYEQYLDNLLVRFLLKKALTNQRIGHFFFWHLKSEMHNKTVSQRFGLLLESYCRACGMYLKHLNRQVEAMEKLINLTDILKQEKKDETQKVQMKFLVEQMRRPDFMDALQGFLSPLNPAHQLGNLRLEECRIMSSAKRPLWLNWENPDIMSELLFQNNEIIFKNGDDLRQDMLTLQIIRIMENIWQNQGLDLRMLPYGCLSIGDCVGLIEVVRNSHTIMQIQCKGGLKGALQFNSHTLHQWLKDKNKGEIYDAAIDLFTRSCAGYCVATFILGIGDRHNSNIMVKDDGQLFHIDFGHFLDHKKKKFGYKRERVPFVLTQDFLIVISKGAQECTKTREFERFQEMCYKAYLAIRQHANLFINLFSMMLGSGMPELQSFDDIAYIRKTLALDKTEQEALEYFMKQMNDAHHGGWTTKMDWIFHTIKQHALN
T1 sequence (P27986 whole entry partner): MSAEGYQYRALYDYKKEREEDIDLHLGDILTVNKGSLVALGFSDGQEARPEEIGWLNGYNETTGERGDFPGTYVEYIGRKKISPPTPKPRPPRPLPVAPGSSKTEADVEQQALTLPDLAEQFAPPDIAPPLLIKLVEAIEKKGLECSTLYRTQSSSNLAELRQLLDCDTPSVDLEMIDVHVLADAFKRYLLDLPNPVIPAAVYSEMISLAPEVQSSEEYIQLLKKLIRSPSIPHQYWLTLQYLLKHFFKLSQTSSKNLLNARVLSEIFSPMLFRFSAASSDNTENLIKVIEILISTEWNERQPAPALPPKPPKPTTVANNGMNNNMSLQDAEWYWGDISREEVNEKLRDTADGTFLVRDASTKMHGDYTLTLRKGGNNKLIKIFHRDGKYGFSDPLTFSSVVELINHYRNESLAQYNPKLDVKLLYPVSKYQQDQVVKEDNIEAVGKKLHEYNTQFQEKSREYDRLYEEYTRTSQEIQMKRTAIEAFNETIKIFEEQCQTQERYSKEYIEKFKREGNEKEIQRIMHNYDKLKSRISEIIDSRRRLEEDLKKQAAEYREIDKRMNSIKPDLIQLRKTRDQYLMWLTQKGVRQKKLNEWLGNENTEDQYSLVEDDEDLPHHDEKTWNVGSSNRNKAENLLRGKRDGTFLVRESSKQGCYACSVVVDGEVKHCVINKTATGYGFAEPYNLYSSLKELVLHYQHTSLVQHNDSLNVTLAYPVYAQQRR

For the molecule `CC(O)c1ccc(S(=O)(=O)N2CCC(F)(C(=O)N[C@H](C)/C=C/C(=O)N3CC(F)(F)C3)CC2)c(-c2ccccc2Cl)c1` (stereo partly drawn) [Compound 140, 1-((2′-chloro-5-(1-hydroxyethyl)-[1,1′-biphenyl]-2-yl)sulfonyl)-N-((R,E)-5-(3,3-difluoroazetidin-1-yl)-5-oxopent-3-en-2-yl)-4-fluoropiperidine-4-carboxamide], in experiment [1], the IC50 amounted to 350 nM. In addition, in experiment [2], the IC50 turned out to be 427 nM and the Emax is 87.7%.
Turning to `C[C@H](/C=C\S(C)(=O)=O)NC(=O)[C@@]1(F)CCCN(C(=O)[C@@]2(C)CN(CC(F)(F)F)C[C@H]2c2ccccc2Cl)CC1` [Compound 254, (R)-1-((3R,4R)-4-(2-chlorophenyl)-3-methyl-1-(2,2,2-trifluoroethyl)pyrrolidine-3-carbonyl)-4-fluoro-N-((R,Z)-4-(methylsulfonyl)but-3-en-2-yl)azepane-4-carboxamide], the IC50 in experiment [1] was determined as 880 nM. Further, in experiment [2], the IC50 stood at 911 nM and the Emax was 92.5%.
In the case of `C[C@H](/C=C\S(C)(=O)=O)NC(=O)[C@@]1(F)CCCN(C(=O)[C@H]2CN(CC(F)(F)F)C[C@H]2c2cccc(F)c2Cl)CC1` (single isomer, unassigned) [Compound 168, (R)-1-((3*R,4*R)-4-(2-chloro-3-fluorophenyl)-1-(2,2,2-trifluoroethyl)pyrrolidine-3-carbonyl)-4-fluoro-N-((R,Z)-4-(methylsulfonyl)but-3-en-2-yl)azepane-4-carboxamide], in experiment [1], the IC50 stood at 215 nM. Further, in experiment [2], the IC50 was determined as 136 nM and the Emax is 90.6%.
`COc1ccc(S(=O)(=O)N2CCC[C@](F)(C(=O)N[C@H](C)/C=C\S(C)(=O)=O)CC2)c(-c2ccccc2Cl)c1` [Compound 312, (R)-1-((2′-chloro-5-methoxy-[1,1′-biphenyl]-2-yl)sulfonyl)-4-fluoro-N-((R,Z)-4-(methylsulfonyl)but-3-en-2-yl)azepane-4-carboxamide]: the figures for the IC50 in experiment [1] and in experiment [2] were 80 nM and 140 nM, respectively.
Turning to `[2H]C([2H])([2H])Oc1ccc(S(=O)(=O)N2CC[C@@](F)(C(=O)N[C@H](C)/C=C\S(C)(=O)=O)C[C@H]2C)c(-c2ccccc2Cl)c1` [Compound 301, (2R,4S)-1-((2′-chloro-5-(methoxy-d3)-[1,1′-biphenyl]-2-yl)sulfonyl)-4-fluoro-2-methyl-N-((R,Z)-4-(methylsulfonyl)but-3-en-2-yl)piperidine-4-carboxamide], the IC50 in experiment [1] was 77 nM. Moreover, in experiment [2], the IC50 turned out to be 117 nM and the Emax was 99.8%.
The matching figures for `C[C@H](/C=C\S(C)(=O)=O)NC(=O)[C@@]1(F)CCCN(C(=O)[C@H]2CN(CC(F)(F)F)C[C@H]2c2ccc(F)cc2Cl)CC1` (single isomer, unassigned) [Compound 167, (R)-1-((3*R,4*R)-4-(2-chloro-4-fluorophenyl)-1-(2,2,2-trifluoroethyl)pyrrolidine-3-carbonyl)-4-fluoro-N-((R,Z)-4-(methylsulfonyl)but-3-en-2-yl)azepane-4-carboxamide]: 580 nM, 518 nM and 93.6%.
`O=C(/C=C/CNC(=O)C1(F)CCN(S(=O)(=O)c2ccc(Br)cc2-c2ccccc2Cl)CC1)N1CC(F)(F)C1` [Compound 282, (E)-1-((5-bromo-2′-chloro-[1,1′-biphenyl]-2-yl)sulfonyl)-N-(4-(3,3-difluoroazetidin-1-yl)-4-oxobut-2-en-1-yl)-4-fluoropiperidine-4-carboxamide]: the IC50 in experiment [1] stood at 140 nM; in experiment [2] it was 367 nM.
For the molecule `COCc1ccc(S(=O)(=O)N2CC[C@@](F)(C(=O)N[C@H](C)/C=C\S(C)(=O)=O)C[C@H]2C)c(-c2ccccc2Cl)c1` [Compound 149, (2R,4S)-1-((2′-chloro-5-(methoxymethyl)-[1,1′-biphenyl]-2-yl)sulfonyl)-4-fluoro-2-methyl-N-((R,Z)-4-(methylsulfonyl)but-3-en-2-yl)piperidine-4-carboxamide], the IC50 in experiment [1] came to 161 nM. Besides, in experiment [2], the IC50 was 248 nM and the Emax is 109%.
The matching figures for `O=C([C@H]1CN(CC(F)(F)F)C[C@H]1c1ccccc1Cl)N1CCC[C@](F)(C(=O)N[C@@H]2C=CS(=O)(=O)C2)CC1` [Compound 176, (R)-1-((3R,4R)-4-(2-chlorophenyl)-1-(2,2,2-trifluoroethyl)pyrrolidine-3-carbonyl)-N-((R)-1,1-dioxido-2,3-dihydrothiophen-3-yl)-4-fluoroazepane-4-carboxamide]: 750 nM, 679 nM and 83.3%.
On the same counts, the results for `CC(C)(/C=C/C(=O)N1CC(F)(F)C1)NC(=O)C1(F)CCN(S(=O)(=O)c2ccc(C(F)(F)F)cc2-c2ccccc2Cl)CC1` [Compound 249, (E)-1-((2′-chloro-5-(trifluoromethyl)-[1,1′-biphenyl]-2-yl)sulfonyl)-N-(5-(3,3-difluoroazetidin-1-yl)-2-methyl-5-oxopent-3-en-2-yl)-4-fluoropiperidine-4-carboxamide] are 620 nM, 1200 nM and 82.8%.
Regarding `C[C@H](/C=C\S(C)(=O)=O)NC(=O)[C@]1(F)CCN(S(=O)(=O)c2ccc(Br)cc2-c2cccc(Cl)c2)[C@H](C)C1` [Compound 145, (2R,4S)-1-((5-bromo-3′-chloro-[1,1′-biphenyl]-2-yl)sulfonyl)-4-fluoro-2-methyl-N-((R,Z)-4-(methylsulfonyl)but-3-en-2-yl)piperidine-4-carboxamide], the IC50 in experiment [1] came to 270 nM. In experiment [2], the IC50 was 131 nM and the Emax is 102%.
As for `C[C@H](/C=C/C(=O)N1CC(F)(F)C1)NC(=O)[C@@]1(F)CCCN(C(=O)c2ccc(C(F)(F)F)cc2-c2ccccc2Cl)CC1` [Compound 244, (R)-1-(2′-chloro-5-(trifluoromethyl)-[1,1′-biphenyl]-2-carbonyl)-N-((R,E)-5-(3,3-difluoroazetidin-1-yl)-5-oxopent-3-en-2-yl)-4-fluoroazepane-4-carboxamide], the IC50 in experiment [1] came out at 780 nM. Also, in experiment [2], the IC50 worked out at 1200 nM and the Emax came to 76.3%.
As to `C[C@H](/C=C/C(=O)N1CC(F)(F)C1)NC(=O)[C@]1(F)CCN(S(=O)(=O)c2ccc(C(F)F)cc2-c2ccccc2Cl)[C@H](C)C1` [Compound 253, (2R,4S)-1-((2′-chloro-5-(difluoromethyl)-[1,1′-biphenyl]-2-yl)sulfonyl)-N-((R,E)-5-(3,3-difluoroazetidin-1-yl)-5-oxopent-3-en-2-yl)-4-fluoro-2-methylpiperidine-4-carboxamide], the IC50 in experiment [1] was found to be 160 nM. In experiment [2], the IC50 was 267 nM and the Emax was 77.2%.
As for `O=C(/C=C\CNC(=O)C1(F)CCN(S(=O)(=O)c2ccc(C(F)(F)F)cc2-c2ccccc2Cl)CC1)N1CC(F)(F)C1` [Compound 284, (Z)-1-((2′-chloro-5-(trifluoromethyl)-[1,1′-biphenyl]-2-yl)sulfonyl)-N-(4-(3,3-difluoroazetidin-1-yl)-4-oxobut-2-en-1-yl)-4-fluoropiperidine-4-carboxamide], the IC50 in experiment [1] was 61 nM; in experiment [2], 67.4 nM.
As to `C[C@H](/C=C/C(=O)N1CC(F)(F)C1)NC(=O)[C@]1(F)CCN(S(=O)(=O)c2ccc(Br)cc2-c2ccccc2Cl)[C@H](C)C1` [Compound 153, (2R,4S)-1-((5-bromo-2′-chloro-[1,1′-biphenyl]-2-yl)sulfonyl)-N-((R,E)-5-(3,3-difluoroazetidin-1-yl)-5-oxopent-3-en-2-yl)-4-fluoro-2-methylpiperidine-4-carboxamide], in experiment [1], the IC50 was found to be 183 nM. In addition, in experiment [2], the IC50 was found to be 204 nM and the Emax amounted to 104%.
The matching figures for `C[C@H](/C=C/C(=O)N1CC(F)(F)C1)NC(=O)[C@@]1(F)CCCN(C(=O)c2ccc(Br)cc2-c2ccccc2Cl)CC1` [Compound 243, (R)-1-(5-bromo-2′-chloro-[1,1′-biphenyl]-2-carbonyl)-N-((R,E)-5-(3,3-difluoroazetidin-1-yl)-5-oxopent-3-en-2-yl)-4-fluoroazepane-4-carboxamide]: 670 nM, 761 nM and 68.7%.
The matching figures for `C[C@H](/C=C\S(C)(=O)=O)NC(=O)[C@@]1(F)CCCN(C(=O)[C@H]2CN(CC(C)(F)F)C[C@H]2c2ccccc2Cl)CC1` [Compound 180, (R)-1-((3R,4R)-4-(2-chlorophenyl)-1-(2,2-difluoropropyl)pyrrolidine-3-carbonyl)-4-fluoro-N-((R,Z)-4-(methylsulfonyl)but-3-en-2-yl)azepane-4-carboxamide]: 127 nM, 136 nM and 96.9%.
As for `CS(=O)(=O)/C=C\[C@H](CC(F)(F)F)NC(=O)C1(F)CCN(S(=O)(=O)c2ccc(Br)cc2-c2ccccc2Cl)CC1` (single isomer, unassigned) [Compound 240, (*S,Z)-1-((5-bromo-2′-chloro-[1,1′-biphenyl]-2-yl)sulfonyl)-4-fluoro-N-(5,5,5-trifluoro-1-(methylsulfonyl)pent-1-en-3-yl)piperidine-4-carboxamide], the IC50 in experiment [1] is 120 nM; in experiment [2] it was 437 nM.
